Values quoted from earlier work, collected in PMC9387934, “Randomized single oral dose phase 1 study of safety, tolerability, and pharmacokinetics of Iminosugar UV-4 Hydrochloride (UV-4B) in healthy subjects” (PLoS Neglected Tropical Diseases, 2022).
pIC50: −log10 of the molar value. Counter-ions that a name gives are not always drawn. Like-named read-outs stand apart in the source and are kept apart here.

Tests used:
CYP2B6 = test system: CYP2B6; design: method as in Investigator’s Brochure (IB); settings: ref Investigator’s Brochure (IB), cited from earlier work
[1] = human, mouse, rat, and dog liver microsomes and hepatocytes; ref Investigator’s Brochure (IB); cited from earlier work
DENV = settings: cited from earlier work
DENV-2 S221 = settings: ref Investigator’s Brochure (IB), cited from earlier work
[2] = design: method as in Investigator’s Brochure (IB); settings: 50 mg/kg/day for 13 days; ref Investigator’s Brochure (IB); cited from earlier work
[3] = mouse, cited from earlier work
[4] = test system: cultured human lymphocytes; settings: in vitro; ref Investigator’s Brochure (IB); cited from earlier work
[5] = 20 mg/kg TID, started 1 hour before infection, ref UV4-LIA-0004
[6] = 20 mg/kg TID, started 24 hours after infection, ref UV4-LIA-0003b
[7] = 20 mg/kg TID, started 24 hours after infection, ref UV4-LIA-0004
[8] = 20 mg/kg TID, started 48 hours after infection, ref UV4-LIA-0003b
[9] = 20 mg/kg TID, started 48 hours after infection, ref UV4-LIA-0004
[10] = oral, first dose 1 hour before infection, TID for 7 days

COCCCCCCCCCN1C[C@H](O)[C@@H](O)[C@H](O)[C@H]1CO [UV-4, N-(9’-methoxynonyl)-1-deoxynojirimycin]
Estimated IC50 (CYP2B6; CYP2B6): > 191 µg/mL
pIC50 (CYP2B6; CYP2B6, read-out: Estimated IC50): < 3.22
Direct inhibition of CYP2B6 (CYP2B6; in vitro): weak direct inhibition
Metabolic stability [1]: metabolically stable

COCCCCCCCCCN1C[C@H](O)[C@@H](O)[C@H](O)[C@H]1CO [UV-4B, N-(9’-methoxynonyl)-1-deoxynojirimycin hydrochloride]
Survival rate (DENV; 2.5 mg/kg TID, ref UV4-LIA-0002): 40%
Survival rate (DENV; 5 mg/kg TID, ref UV4-LIA-0002): 50%
Mean time to death (MTTD) (DENV; 20 mg/kg TID, started 1 hour before infection, all surviving at end of study, ref UV4-LIA-0003b): more than 11 days
Survival rate (DENV; 20 mg/kg TID, started 1 hour before infection, ref UV4-LIA-0003b): 100%
Mean time to death (MTTD) (DENV; [5]): 9.1 days
Survival rate at 11 days post-infection (DENV; [5]): 30%
Mean time to death (MTTD) (DENV; [6]): 7 days
Survival rate (DENV; [6]): 80%
Mean time to death (MTTD) (DENV; [7]): 10.5 days
Survival rate at 11 days post-infection (DENV; [7]): 60%
Mean time to death (MTTD) (DENV; [8]): 9.3 days
Survival rate (DENV; [8]): 70%
Mean time to death (MTTD) (DENV; [9]): 6 days
Survival rate at 11 days post-infection (DENV; [9]): 40%
Minimal effective dose (survival of 90% to 100%) (DENV; doses 2.5 to 40 mg/kg TID, first dose 1 hour prior to infection, ref UV4-LIA-0002): 10 mg/kg TID
50% effective dose (DENV-2 S221; [10]): 5 mg/kg TID
Minimal effective dose (90% survival rate) (DENV-2 S221; [10]): 10 mg/kg TID
50% effective dose (DENV-2 S221; step-wise minimal effective dose and therapeutic window studies, start 24 or 48 hours after infection): 20 mg/kg TID
Finding in rabbit offspring [2]: skeletal and visceral malformations
Dose with lymphoid depletion in thymus ([3]; F): ≥ 25 mg/kg/dose, TID
Dose with lymphoid depletion in thymus ([3]; M): 100 mg/kg/dose, TID
Dose with neutrophilic infiltration and erosion/ulcer in rectum ([3]; females (printed F100))): 100 mg/kg/dose, TID
Neurologic Effects ([3]; functional observational battery): no effect in FOB
Dose with decrease in thymus weight ([3]; printed (men)): ≥ 25 mg/kg/dose, TID
Dose with increased AST ([3]; printed (men)): ≥ 600 mg/kg/dose, TID
Dose with decrease in thymus weight ([3]; women [sic]): 100 mg/kg/dose, TID
Dose with increased AST ([3]; women [sic]): 600 mg/kg/dose, TID
Cardiovascular Effects [3]: none observed
Dose with decrease in red cell mass, RBC count, HGB, and HCT [3]: 100 mg/kg/dose, TID
Dose with fecal abnormalities [3]: > 250 mg/kg/dose, TID
Clastogenicity, chromosomal aberration in cultured human lymphocytes [4]: not found to be mutagenic or clastogenic
